Reference: PubChem BioAssay (NCI)
Several values for one entry are separate records, joined by “and”; a condition that tells them apart may be missing. Identical values can stand only once.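 96-well plates; 48 h exposure; 5 concentrations. Endpoints by linear interpolation between flanking doses. Not reached: highest tested concentration assigned. Here, GI50 denotes the concentration required for 50% inhibition of growth. The concentration for full growth arrest is given as TGI.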

Columns and labels:
Experiment in all cases: inhibition of tumour cell growth, NCI panel, 48 h
DU-145 prostate = tested on: DU-145 prostate
EKVX NSCLC = tested on: EKVX NSCLC
HCC-2998 colon = tested on: HCC-2998 colon
MDA-N = tested on: MDA-N
OVCAR-3 ovarian = tested on: OVCAR-3 ovarian
SF-295 CNS = tested on: SF-295 CNS
SK-MEL-5 melanoma = tested on: SK-MEL-5 melanoma
SNB-75 CNS = tested on: SNB-75 CNS
T-47D breast = tested on: T-47D breast
TK-10 renal = tested on: TK-10 renal

Structure (SMILES): CCN1CCC(O)(/C=C/c2ccc(C(C)C)cc2)C(C(=O)/C=C/c2ccc(C(C)C)cc2)C1 (stereo not given)
- TGI (DU-145 prostate): 9.76 µM
- TGI (EKVX NSCLC): 5.74 µM
- TGI (HCC-2998 colon): 3.64 µM
- TGI (MDA-N): 5 µM
- TGI (OVCAR-3 ovarian): 11.7 µM
- TGI (SF-295 CNS): 9.36 µM
- TGI (SK-MEL-5 melanoma): 12.7 µM
- TGI (SNB-75 CNS): 11.7 µM
- TGI (T-47D breast): 6.19 µM
- TGI (TK-10 renal): 6.16 µM

Structure (SMILES): C=C1CN(C2=NCCO2)C1
- TGI (DU-145 prostate): > 100 µM
- TGI (EKVX NSCLC): > 100 µM
- TGI (HCC-2998 colon): > 100 µM
- TGI (MDA-N): > 100 µM
- TGI (OVCAR-3 ovarian): > 100 µM
- TGI (SF-295 CNS): > 100 µM
- TGI (SK-MEL-5 melanoma): > 100 µM
- TGI (SNB-75 CNS): > 100 µM
- TGI (T-47D breast): > 100 µM
- TGI (TK-10 renal): > 100 µM

Structure (SMILES): C=C(c1ccccc1)c1ccccc1-c1cc(-c2ccccc2)cc(-c2ccccc2)n1
- TGI (DU-145 prostate): > 100 µM
- TGI (EKVX NSCLC): > 100 µM
- TGI (HCC-2998 colon): > 100 µM
- TGI (MDA-N): > 100 µM
- TGI (OVCAR-3 ovarian): > 100 µM
- TGI (SF-295 CNS): > 100 µM
- TGI (SK-MEL-5 melanoma): > 100 µM
- TGI (SNB-75 CNS): > 100 µM
- TGI (T-47D breast): 61.3 µM
- TGI (TK-10 renal): > 100 µM

Structure (SMILES): Cc1ccc([N+](=O)[O-])c2c(NCC(O)CO)ccnc12 (stereo not given)
- TGI (DU-145 prostate): > 100 µM
- TGI (EKVX NSCLC): > 100 µM
- TGI (HCC-2998 colon): > 100 µM
- TGI (MDA-N): > 100 µM
- TGI (OVCAR-3 ovarian): > 100 µM
- TGI (SF-295 CNS): 73.9 µM
- TGI (SK-MEL-5 melanoma): 42.3 µM
- TGI (SNB-75 CNS): > 100 µM
- TGI (T-47D breast): > 100 µM
- TGI (TK-10 renal): > 100 µM

Structure (SMILES): C=C(C(=O)O[C@H]1C(=O)C2=C(C)CCC3C(=C)C(=O)O[C@@H]3C2[C@]1(C)O)C1CC[C@]2(C)CCCC(=C)[C@H]2C1 (stereo not given in full)
- GI50 (DU-145 prostate): 5.37 µM
- TGI (DU-145 prostate): 11.3 µM and 10.3 µM
- TGI (EKVX NSCLC): 17.8 µM and 22.7 µM
- TGI (HCC-2998 colon): 9.68 µM
- GI50 (MDA-N): 0.117 µM
- TGI (MDA-N): 11.6 µM and 8.45 µM
- GI50 (OVCAR-3 ovarian): 3.39 µM
- TGI (OVCAR-3 ovarian): 9.84 µM and 9.06 µM
- GI50 (SF-295 CNS): 0.0252 µM
- TGI (SF-295 CNS): 9.37 µM and 29.5 µM
- GI50 (SK-MEL-5 melanoma): 8.45 µM
- TGI (SK-MEL-5 melanoma): 15.8 µM and 29.7 µM
- GI50 (SNB-75 CNS): 2420 nM
- TGI (SNB-75 CNS): 8.05 µM and 6.71 µM
- GI50 (T-47D breast): 2060 nM
- TGI (T-47D breast): 13.1 µM and 5.03 µM
- GI50 (TK-10 renal): 6 µM
- TGI (TK-10 renal): 12.3 µM and 6.78 µM

Structure (SMILES): CC1(C)CCc2c(c(N=Nc3ccc(F)cc3)c3ccccc3c2O)O1
- TGI (DU-145 prostate): 35.8 µM
- TGI (EKVX NSCLC): 97 µM
- TGI (HCC-2998 colon): 42.8 µM
- TGI (MDA-N): 31.5 µM
- TGI (OVCAR-3 ovarian): 70.8 µM
- TGI (SF-295 CNS): 49.8 µM
- TGI (SK-MEL-5 melanoma): 21.1 µM
- TGI (SNB-75 CNS): 48.6 µM
- TGI (T-47D breast): 86.8 µM
- TGI (TK-10 renal): > 100 µM

Structure (SMILES): CN1CCN(C2=CC(=O)c3c(O)ccc(O)c3C2=O)CC1
- TGI (DU-145 prostate): 3.13 µM
- TGI (EKVX NSCLC): 3.26 µM
- TGI (HCC-2998 colon): 3.23 µM
- TGI (MDA-N): 0.325 µM
- TGI (OVCAR-3 ovarian): 0.611 µM
- TGI (SF-295 CNS): 3.09 µM
- TGI (SK-MEL-5 melanoma): 0.325 µM
- TGI (SNB-75 CNS): 2.97 µM
- TGI (T-47D breast): 2.04 µM
- TGI (TK-10 renal): 4.22 µM

Structure (SMILES): COc1ccc(N2NC(c3ccccc3)(c3ccccc3)C(C)C2=O)cc1 (stereo not given)
- TGI (DU-145 prostate): > 100 µM
- TGI (EKVX NSCLC): > 100 µM
- TGI (HCC-2998 colon): > 100 µM
- TGI (MDA-N): > 100 µM
- TGI (OVCAR-3 ovarian): > 100 µM
- TGI (SF-295 CNS): > 100 µM
- TGI (SK-MEL-5 melanoma): > 100 µM
- TGI (SNB-75 CNS): > 100 µM
- TGI (T-47D breast): > 100 µM
- TGI (TK-10 renal): > 100 µM

Structure (SMILES): Brc1ccc2c(-c3csc(-c4c[nH]c5ccccc45)n3)c[nH]c2c1
- TGI (DU-145 prostate): 32.9 µM
- TGI (EKVX NSCLC): 36.1 µM
- TGI (HCC-2998 colon): 30.9 µM
- GI50 (MDA-N): 19.2 µM
- TGI (MDA-N): 39.8 µM
- TGI (OVCAR-3 ovarian): 29.1 µM
- GI50 (SF-295 CNS): 14.6 µM
- TGI (SF-295 CNS): 29.5 µM
- TGI (SK-MEL-5 melanoma): 28.6 µM
- TGI (SNB-75 CNS): 46.4 µM
- TGI (T-47D breast): 66.4 µM
- TGI (TK-10 renal): 27.5 µM

Structure (SMILES): Cc1sc2nc3n(c(=O)c2c1C)N=CN(c1ccc(F)cc1)C3
- TGI (DU-145 prostate): > 100 µM
- TGI (EKVX NSCLC): > 100 µM
- TGI (HCC-2998 colon): > 100 µM
- TGI (MDA-N): > 100 µM
- TGI (OVCAR-3 ovarian): > 100 µM
- TGI (SF-295 CNS): > 100 µM
- TGI (SK-MEL-5 melanoma): > 100 µM
- TGI (SNB-75 CNS): > 100 µM
- TGI (T-47D breast): > 100 µM
- TGI (TK-10 renal): > 100 µM

Structure (SMILES): c1ccc(CN2CCN3CCN(CC2)CCN(Cc2ccccc2)CC3)cc1
- TGI (DU-145 prostate): 29.6 µM
- TGI (EKVX NSCLC): 32.6 µM
- TGI (HCC-2998 colon): 23.3 µM
- TGI (MDA-N): 12.2 µM
- TGI (OVCAR-3 ovarian): 24.5 µM
- TGI (SF-295 CNS): > 55.2 µM
- TGI (SK-MEL-5 melanoma): 4.96 µM
- TGI (SNB-75 CNS): 18.2 µM
- TGI (T-47D breast): 35.8 µM
- TGI (TK-10 renal): 23.5 µM

Structure (SMILES): COc1cc(Br)c(CC2C3=C(CCN2C(=O)C2CCC2)CC(=O)CC3)cc1O (stereo not given)
- TGI (DU-145 prostate): > 100 µM
- TGI (EKVX NSCLC): > 100 µM
- TGI (HCC-2998 colon): 92.9 µM
- TGI (MDA-N): 45 µM
- TGI (OVCAR-3 ovarian): 57 µM
- TGI (SF-295 CNS): > 100 µM
- TGI (SK-MEL-5 melanoma): > 100 µM
- TGI (SNB-75 CNS): 71.1 µM
- TGI (T-47D breast): 71.8 µM
- TGI (TK-10 renal): > 100 µM

Structure (SMILES): O=[N+]([O-])C(Cl)=C/C(=C(\Cl)SCc1ccccc1)[N+](=O)[O-]
- TGI (DU-145 prostate): > 100 µM
- TGI (EKVX NSCLC): 35.2 µM
- TGI (HCC-2998 colon): 77.6 µM
- TGI (MDA-N): 69.8 µM
- TGI (OVCAR-3 ovarian): 32 µM
- TGI (SF-295 CNS): 99.6 µM
- TGI (SK-MEL-5 melanoma): 47.3 µM
- TGI (SNB-75 CNS): > 100 µM
- TGI (T-47D breast): 40.2 µM
- TGI (TK-10 renal): 48.3 µM

Structure (SMILES): O=c1ccc2ccc(O)cc2o1
- TGI (DU-145 prostate): > 100 µM
- TGI (EKVX NSCLC): > 100 µM
- TGI (HCC-2998 colon): > 100 µM
- TGI (MDA-N): > 100 µM
- TGI (OVCAR-3 ovarian): > 100 µM
- TGI (SF-295 CNS): > 100 µM
- TGI (SK-MEL-5 melanoma): > 100 µM
- TGI (SNB-75 CNS): > 100 µM
- TGI (T-47D breast): > 100 µM
- TGI (TK-10 renal): > 100 µM

Structure (SMILES): CCCCCCCCCCCCCC(=O)N(CCCCCCCCC)CC(O)C(O)C(OC1OC(CO)C(O)C(O)C1O)C(O)CO (stereo not given)
- TGI (DU-145 prostate): 30.6 µM
- TGI (EKVX NSCLC): 34.5 µM
- TGI (HCC-2998 colon): 33.7 µM
- TGI (MDA-N): 38.1 µM
- TGI (OVCAR-3 ovarian): 53.1 µM
- TGI (SF-295 CNS): 41.2 µM
- TGI (SK-MEL-5 melanoma): 34.7 µM
- TGI (SNB-75 CNS): 37.3 µM
- TGI (T-47D breast): 39.7 µM
- TGI (TK-10 renal): 33.7 µM

Structure (SMILES): COc1ccc(C(=O)/C=C/c2cc(O)c(O)cc2F)c(OC)c1
- TGI (DU-145 prostate): 27.3 µM
- TGI (EKVX NSCLC): 49 µM
- TGI (HCC-2998 colon): 7.42 µM
- TGI (MDA-N): 53.4 µM
- TGI (OVCAR-3 ovarian): 2.65 µM
- TGI (SF-295 CNS): 23.5 µM
- TGI (SK-MEL-5 melanoma): 20.9 µM
- TGI (SNB-75 CNS): 20.7 µM
- TGI (T-47D breast): > 80.3 µM
- TGI (TK-10 renal): 66.3 µM
